Laboratory results taken from the supplement of paper PMC10627819.

Tests used:
[1] = system: B. subtilis 168; experiment: fitness (endpoint OD595 vs no drug) (fraction); higher = more growth
In short: (§1)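 Bacterial growth was followed in 384-well plates seeded at OD595 0.01, with 30 µl per well, or 55 µl for S. pneumoniae, in TSB, LB Lennox or CY at 37 °C. OD595 was read every 30 min for 14 h, and each reading had the first reading subtracted as background. Fitness is the background-corrected optical density at entry into stationary phase divided by the robust mean of the no-drug control wells. This ratio is capped at 1.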

[2] = system: S. aureus DSM 20231; experiment: as above
In short: as §1

[3] = system: S. pneumoniae D39V; experiment: as above
In short: as §1

[4] = system: B. subtilis 168; experiment: Bliss interaction score (quartile over a dose matrix) (fitness difference); higher = more antagonism (negative = synergy)
In short: (§2)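 Fitness was OD595 at entry into stationary phase divided by the plate's robust no-drug mean and capped at 1; single-drug fitness was inferred from combination data. The Bliss score is observed minus expected (product) fitness, summarised by quartiles over technical, biological and donor/recipient replicates.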

[5] = system: S. aureus DSM 20231; experiment: as above
In short: as §2

[6] = system: S. aureus Newman; experiment: as above
In short: as §2

[7] = system: S. pneumoniae D39V; experiment: as above
In short: as §2
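Throughout, for Bliss interaction score (quartile over a dose matrix): first quartile when negative (synergy) and third quartile when positive (antagonism).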

CCC[C@@H]1C[C@@H](C(=O)N[C@@H]([C@H]2O[C@H](SC)[C@H](O)[C@@H](O)[C@H]2O)[C@@H](C)O)N(C)C1 [Lincomycin] + CN[C@@H]1[C@H](O)[C@H](NC)[C@H]2O[C@@]3(O)C(=O)C[C@@H](C)O[C@H]3O[C@@H]2[C@H]1O [Spectinomycin]
fitness
Conditions	partner 2 µg/mL	partner 4 µg/mL	partner 8 µg/mL	partner 16 µg/mL
[1], first compound 0.1 µg/mL	0.923	0.923	0.849	–
[1], first compound 0.2 µg/mL	0.937	0.929	0.847	–
[1], first compound 0.4 µg/mL	0.907	0.859	0.861	–
[2], first compound 0.1 µg/mL	–	0.819	0.732	0.566
[2], first compound 0.2 µg/mL	–	0.581	0.54	0.351
[2], first compound 0.4 µg/mL	–	–	–	0.122
[3], first compound 0.215 µg/mL	–	0.777	0.787	0.721
[3], first compound 0.43 µg/mL	–	0.688	0.713	0.616
[3], first compound 0.86 µg/mL	–	0.268	0.286	0.158

fitness, one replicate
Conditions	first compound 0.1 µg/mL	first compound 0.2 µg/mL	first compound 0.4 µg/mL	first compound 0.8 µg/mL
[2], partner 32 µg/mL	0.377	0.176	0.0758	–
[2], partner 64 µg/mL	0.0561	0.042	0.0347	–
[3], partner 4 µg/mL	–	0.777	0.659	0.412
[3], partner 8 µg/mL	–	0.752	0.63	0.35

Conditions	Bliss interaction score
[4]	-0.0786
[5]	-0.175
[6]	-0.195
[7]	-0.0914

CCC[C@@H]1C[C@@H](C(=O)N[C@@H]([C@H]2O[C@H](SC)[C@H](O)[C@@H](O)[C@H]2O)[C@@H](C)O)N(C)C1 [Lincomycin] + COc1c(N2C[C@@H]3CCCN[C@@H]3C2)c(F)cc2c(=O)c(C(=O)O)cn(C3CC3)c12 [Moxifloxacin]
fitness, one replicate
Conditions	first compound 0.1 µg/mL	first compound 0.2 µg/mL	first compound 0.4 µg/mL
[1], partner 0.0312 µg/mL	0.0564	0.039	–
[1], partner 0.0625 µg/mL	0.0916	0.06	–
[1], partner 0.125 µg/mL	0.0846	0.0751	–
[2], partner 0.06 µg/mL	0.661	0.677	0.562
[2], partner 0.12 µg/mL	0.498	0.527	0.448

Conditions	fitness
[1], first compound 0.1 µg/mL, partner 2 µg/mL	0.0333
[1], first compound 0.1 µg/mL, partner 4 µg/mL	0.0228
[1], first compound 0.1 µg/mL, partner 8 µg/mL	0.0229
[1], first compound 0.2 µg/mL, partner 2 µg/mL	0.0297
[1], first compound 0.2 µg/mL, partner 4 µg/mL	0.0322
[1], first compound 0.2 µg/mL, partner 8 µg/mL	0.0239
[1], first compound 0.4 µg/mL, partner 0.0312 µg/mL	0.0344
[1], first compound 0.4 µg/mL, partner 0.0625 µg/mL	0.036
[1], first compound 0.4 µg/mL, partner 0.125 µg/mL	0.0478
[1], first compound 0.4 µg/mL, partner 2 µg/mL	0.0261
[1], first compound 0.4 µg/mL, partner 4 µg/mL	0.0257
[1], first compound 0.4 µg/mL, partner 8 µg/mL	0.0306
[1], first compound 0.8 µg/mL, partner 0.0312 µg/mL	0.0429
[1], first compound 0.8 µg/mL, partner 0.0625 µg/mL	0.049
[1], first compound 0.8 µg/mL, partner 0.125 µg/mL	0.0451
[1], first compound 1.6 µg/mL, partner 0.0312 µg/mL	0.0535
[1], first compound 1.6 µg/mL, partner 0.0625 µg/mL	0.0507
[1], first compound 1.6 µg/mL, partner 0.125 µg/mL	0.0559
[2], first compound 0.1 µg/mL, partner 0.0075 µg/mL	0.823
[2], first compound 0.1 µg/mL, partner 0.015 µg/mL	0.765
[2], first compound 0.1 µg/mL, partner 0.03 µg/mL	0.671
[2], first compound 0.2 µg/mL, partner 0.0075 µg/mL	0.737
[2], first compound 0.2 µg/mL, partner 0.015 µg/mL	0.715
[2], first compound 0.2 µg/mL, partner 0.03 µg/mL	0.689
[2], first compound 0.4 µg/mL, partner 0.0075 µg/mL	0.301
[2], first compound 0.4 µg/mL, partner 0.015 µg/mL	0.278
[2], first compound 0.4 µg/mL, partner 0.03 µg/mL	0.359
[3], first compound 0.2 µg/mL, partner 0.005 µg/mL	0.749
[3], first compound 0.2 µg/mL, partner 0.01 µg/mL	0.829
[3], first compound 0.2 µg/mL, partner 0.02 µg/mL	0.757
[3], first compound 0.215 µg/mL, partner 0.0037 µg/mL	0.742
[3], first compound 0.215 µg/mL, partner 0.0075 µg/mL	0.769
[3], first compound 0.215 µg/mL, partner 0.015 µg/mL	0.751
[3], first compound 0.4 µg/mL, partner 0.005 µg/mL	0.675
[3], first compound 0.4 µg/mL, partner 0.01 µg/mL	0.704
[3], first compound 0.4 µg/mL, partner 0.02 µg/mL	0.653
[3], first compound 0.43 µg/mL, partner 0.0037 µg/mL	0.629
[3], first compound 0.43 µg/mL, partner 0.0075 µg/mL	0.651
[3], first compound 0.43 µg/mL, partner 0.015 µg/mL	0.677
[3], first compound 0.86 µg/mL, partner 0.0037 µg/mL	0.34
[3], first compound 0.86 µg/mL, partner 0.0075 µg/mL	0.339
[3], first compound 0.86 µg/mL, partner 0.015 µg/mL	0.297

Conditions	Bliss interaction score
[4]	-0.0143
[5]	0.124
[6]	0.0565
[7]	0.0862

CCC[C@@H]1C[C@@H](C(=O)N[C@@H]([C@H]2O[C@H](SC)[C@H](O)[C@@H](O)[C@H]2O)[C@@H](C)O)N(C)C1 [Lincomycin] + COc1cc(Cc2cnc(N)nc2N)cc(OC)c1OC [Trimethoprim]
fitness, [1], one replicate
Conditions	partner 0.1 µg/mL	partner 0.125 µg/mL	partner 0.2 µg/mL	partner 0.25 µg/mL	partner 0.4 µg/mL	partner 1 µg/mL	partner 2 µg/mL
first compound 0.1 µg/mL	–	0.539	–	0.582	–	0.451	0.343
first compound 0.2 µg/mL	–	0.633	–	0.619	–	0.319	0.174
first compound 0.4 µg/mL	0.581	–	0.318	–	0.215	0.069	0.0635
first compound 0.8 µg/mL	0.382	0.142	0.169	–	0.121	–	–
first compound 1.6 µg/mL	0.112	0.0455	0.0673	–	0.0597	–	–

fitness
Conditions	first compound 0.1 µg/mL	first compound 0.2 µg/mL	first compound 0.4 µg/mL	first compound 0.8 µg/mL	first compound 1.6 µg/mL
[1], partner 0.125 µg/mL	–	–	0.487	–	–
[1], partner 0.25 µg/mL	–	–	0.465	0.263	0.0775
[1], partner 0.5 µg/mL	0.412	0.368	0.282	0.155	0.0565
[2], partner 0.125 µg/mL	0.83	0.556	0.227	–	–
[2], partner 0.25 µg/mL	0.69	0.596	–	–	–
[2], partner 0.5 µg/mL	0.49	0.536	0.173	–	–
[2], partner 1 µg/mL	0.0776	0.0724	0.0567	–	–

Conditions	Bliss interaction score
[4]	-0.231
[5]	0.222
[6]	0.213
[7]	-0.125

CCC[C@@H]1C[C@@H](C(=O)N[C@@H]([C@H]2O[C@H](SC)[C@H](O)[C@@H](O)[C@H]2O)[C@@H](C)O)N(C)C1 [Lincomycin] + COc1ccc(C[C@H](N)C(=O)N[C@H]2[C@@H](O)[C@H](n3cnc4c(N(C)C)ncnc43)O[C@@H]2CO)cc1 [Puromycin]
fitness
Conditions	first compound 0.1 µg/mL	first compound 0.2 µg/mL	first compound 0.215 µg/mL	first compound 0.4 µg/mL	first compound 0.43 µg/mL	first compound 0.86 µg/mL
[1], partner 0.39 µg/mL	0.867	0.869	–	0.854	–	–
[1], partner 0.78 µg/mL	0.889	0.883	–	0.91	–	–
[1], partner 1.56 µg/mL	0.873	0.866	–	0.843	–	–
[2], partner 0.39 µg/mL	0.877	0.806	–	0.304	–	–
[2], partner 0.78 µg/mL	0.935	0.776	–	0.303	–	–
[2], partner 1.56 µg/mL	0.906	0.759	–	0.253	–	–
[3], partner 1 µg/mL	–	–	0.838	–	0.756	0.436
[3], partner 2 µg/mL	–	–	0.792	–	0.709	0.3
[3], partner 4 µg/mL	–	–	0.743	–	0.536	0.251

fitness, one replicate
Conditions	first compound 0.1 µg/mL	first compound 0.2 µg/mL	first compound 0.4 µg/mL	first compound 0.8 µg/mL
[2], partner 3.12 µg/mL	0.822	0.489	0.207	–
[2], partner 6.24 µg/mL	0.282	0.217	0.093	–
[3], partner 1 µg/mL	–	0.64	0.382	0.0776
[3], partner 2 µg/mL	–	0.621	0.325	0.127
[3], partner 4 µg/mL	–	0.275	0.083	0.0925

Conditions	Bliss interaction score
[4]	-0.0436
[5]	-0.0648
[6]	0.0533
[7]	-0.157
